{"source": "patent US20160339010A1", "about": "“Treatment of Partly Controlled or Uncontrolled Severe Asthma” (TAKEDA GMBH, priority 2014, published 2016)", "origin": "cited, not measured here", "key": {"[1]": {"system": "patients with high-dose corticosteroid dependent asthma", "settings": "cited from earlier work"}, "[2]": {"system": "asthma patients", "settings": "cited from earlier work"}, "[3]": {"system": "patients with severe and uncontrolled bronchial asthma", "settings": "on top of Fluticasone 500 mcg/Salmeterol 50 mcg twice daily; cited from earlier work"}}, "data": [{"smiles": "CC(C)(O)c1ccccc1CC[C@@H](SCC1(CC(=O)[O-])CC1)c1cccc(/C=C/c2ccc3ccc(Cl)cc3n2)c1.[Na+]", "note": "[montelukast, [R-(E)]-1-[[[1-[3-[2-(7-chloro-2-quinolinyl)ethenyl]phenyl]-3-[2-(1-hydroxy-1-methylethyl)phenyl]propyl]thio]methyl]cyclopropaneacetic acid]", "values": [{"measurement": "sputum eosinophilia", "setting": "[1]", "value": "failure of montelukast to reduce"}]}, {"smiles": "Cn1c(=O)c2[nH]cnc2n(C)c1=O", "note": "[theophylline]", "values": [{"measurement": "benefit of add-on therapy to inhaled glucocorticosteroids", "setting": "[2]", "value": "no benefit"}]}, {"smiles": "O=C(Nc1c(Cl)cncc1Cl)c1ccc(OC(F)F)c(OCC2CC2)c1", "note": "[Roflumilast]", "values": [{"measurement": "FEV1", "setting": "[3]", "value": "significantly improved"}, {"measurement": "Forced vital capacity (FVC)", "setting": "[3]", "value": "significantly improved"}, {"measurement": "accumulation of neutrophils in induced sputum", "setting": "[3]", "value": "reduced"}, {"measurement": "morning PEF", "setting": "[3]", "value": "significantly improved"}]}]}
